# Patent US20210386753A1, “METHODS OF ADMINISTERING INTRAVENOUS MELOXICAM PRE-OPERATIVELY AND IN COMBINATION WITH OTHER DRUGS” (BAUDAX BIO, INC., priority 2018, published 2021)
# Like-named read-outs stand apart in the source and are kept apart here.
# Columns and labels:
# [1] = following oral administration, cited from earlier work
# Plasma Tmax of meloxicam = assay type: in vivo; conditions: human, 30 mg, methods as disclosed herein (IV bolus)
# patients [2] = assay: Onset, peak and duration of analgesic effect; assay type: in vivo, human; conditions: meloxicam administration as disclosed herein (IV)
# patients [3] = conditions: intravenous; Prescribing Information; cited from earlier work
Compound,time of maximum observed plasma concentration (tmax) [1],time of maximum observed plasma concentration (tmax) ([1]; listed as oral meloxicam),Tmax (Plasma Tmax of meloxicam),therapeutic window (patients [2]),time for the onset of pain relief (patients [3])
"Cc1cnc(NC(=O)C2=C(O)c3ccccc3S(=O)(=O)N2C)s1 [meloxicam, 4-hydroxy-2-methyl-N-(5-methyl-2-thiazolyl)-2H-1,2-benzothiazine-3-carboxamide-1,1-dioxide]",5 to 7 h,5 to 6 h,4.8 to 9.6 min,at least 24 hours,–
O=C(c1ccccc1)c1ccc2n1CCC2C(=O)O (centres unmarked) [ketorolac],–,–,–,–,up to 30 minutes
